Data published in PubChem BioAssay (NCI).
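Exposure lasted 48 hours, with cells grown in 96-well plates and compounds tested at five concentrations. At the TGI there is no net growth.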

Legend:
Test in all cases: NCI tumour cell line growth inhibition, 48 h
[1] = test system: OVCAR-5 ovarian
[2] = test system: SK-MEL-5 melanoma
[3] = test system: U251 CNS
[4] = test system: NCI-H226 lung
[5] = test system: HT29 colon
[6] = test system: LOX IMVI melanoma
[7] = test system: HCC-2998 colon
[8] = test system: IGROV1 ovarian
[9] = test system: 786-0 renal
[10] = test system: PC-3 prostate
[11] = test system: SN12C renal
[12] = test system: NCI-H460 lung
[13] = test system: CCRF-CEM leukemia
[14] = test system: SK-OV-3 ovarian
[15] = test system: HOP-62 NSCLC
[16] = test system: EKVX NSCLC
[17] = test system: OVCAR-8 ovarian
[18] = test system: MALME-3M melanoma
[19] = test system: SR leukemia
[20] = test system: K-562 leukemia
[21] = test system: UO-31 renal
[22] = test system: DU-145 prostate
[23] = test system: HCT-15 colon
[24] = test system: UACC-257 melanoma
[25] = test system: A498 renal
[26] = test system: ACHN renal
[27] = test system: RXF 393 renal
[28] = test system: OVCAR-3 ovarian
[29] = test system: UACC-62 melanoma
[30] = test system: T-47D breast
[31] = test system: RPMI-8226 leukemia
[32] = test system: CAKI-1 renal
[33] = test system: SK-MEL-28 melanoma
[34] = test system: SNB-19 CNS
[35] = test system: SF-268 CNS
[36] = test system: COLO 205 colon
[37] = test system: MOLT-4 leukemia
[38] = test system: KM12 colon
[39] = test system: NCI/ADR-RES ovarian
[40] = test system: MCF7 breast
[41] = test system: NCI-H23 lung
[42] = test system: HOP-92 NSCLC
[43] = test system: MDA-MB-435
[44] = test system: A549 NSCLC
[45] = test system: SW-620 colon
[46] = test system: OVCAR-4 ovarian
[47] = test system: HL-60(TB) leukemia
[48] = test system: SF-295 CNS
[49] = test system: BT-549 breast
[50] = test system: M14 melanoma
[51] = test system: TK-10 renal
[52] = test system: MDA-MB-231 breast
[53] = test system: SK-MEL-2 melanoma
[54] = test system: SNB-75 CNS

Measured: TGI

COc1ccc(/C=C2\CCC(CNc3ccc(Br)cc3)C2=O)cc1 (stereo not given)
33.3 µM: [31]
87.2 µM: [19]
not listed: [53] | [54]
> 100 µM: all other assays above

CCN1C(=O)CS/C1=N/NC(=O)C(O)(c1ccccc1)C1C=CC=CC1 (stereo not given)
not listed: [4] | [5] | [6] | [7] | [9] | [10] | [11] | [16] | [17] | [21] | [22] | [23] | [24] | [25] | [28] | [34] | [38] | [48] | [49] | [51] | [52]
> 10 µM: all other assays above
